Results from ChEMBL document CHEMBL3880412, “Indole derivatives as CFTR modulators” (2009).

Test system: Cystic fibrosis transmembrane conductance regulator (Homo sapiens), P13569 [F508del]
Test: Correction activity at CFTR F508 deletion mutant (unknown origin) expressed in mouse NIH/3T3 cells assessed as increase in cAMP/genistein-dependent current amplitude at 10 uM incubated for 10 mins at 37 degC by patch clamp method relative to control
Assay type: cell-based

Chain of Cystic fibrosis transmembrane conductance regulator (Homo sapiens), P13569 [F508del] (P13569 as listed by the source): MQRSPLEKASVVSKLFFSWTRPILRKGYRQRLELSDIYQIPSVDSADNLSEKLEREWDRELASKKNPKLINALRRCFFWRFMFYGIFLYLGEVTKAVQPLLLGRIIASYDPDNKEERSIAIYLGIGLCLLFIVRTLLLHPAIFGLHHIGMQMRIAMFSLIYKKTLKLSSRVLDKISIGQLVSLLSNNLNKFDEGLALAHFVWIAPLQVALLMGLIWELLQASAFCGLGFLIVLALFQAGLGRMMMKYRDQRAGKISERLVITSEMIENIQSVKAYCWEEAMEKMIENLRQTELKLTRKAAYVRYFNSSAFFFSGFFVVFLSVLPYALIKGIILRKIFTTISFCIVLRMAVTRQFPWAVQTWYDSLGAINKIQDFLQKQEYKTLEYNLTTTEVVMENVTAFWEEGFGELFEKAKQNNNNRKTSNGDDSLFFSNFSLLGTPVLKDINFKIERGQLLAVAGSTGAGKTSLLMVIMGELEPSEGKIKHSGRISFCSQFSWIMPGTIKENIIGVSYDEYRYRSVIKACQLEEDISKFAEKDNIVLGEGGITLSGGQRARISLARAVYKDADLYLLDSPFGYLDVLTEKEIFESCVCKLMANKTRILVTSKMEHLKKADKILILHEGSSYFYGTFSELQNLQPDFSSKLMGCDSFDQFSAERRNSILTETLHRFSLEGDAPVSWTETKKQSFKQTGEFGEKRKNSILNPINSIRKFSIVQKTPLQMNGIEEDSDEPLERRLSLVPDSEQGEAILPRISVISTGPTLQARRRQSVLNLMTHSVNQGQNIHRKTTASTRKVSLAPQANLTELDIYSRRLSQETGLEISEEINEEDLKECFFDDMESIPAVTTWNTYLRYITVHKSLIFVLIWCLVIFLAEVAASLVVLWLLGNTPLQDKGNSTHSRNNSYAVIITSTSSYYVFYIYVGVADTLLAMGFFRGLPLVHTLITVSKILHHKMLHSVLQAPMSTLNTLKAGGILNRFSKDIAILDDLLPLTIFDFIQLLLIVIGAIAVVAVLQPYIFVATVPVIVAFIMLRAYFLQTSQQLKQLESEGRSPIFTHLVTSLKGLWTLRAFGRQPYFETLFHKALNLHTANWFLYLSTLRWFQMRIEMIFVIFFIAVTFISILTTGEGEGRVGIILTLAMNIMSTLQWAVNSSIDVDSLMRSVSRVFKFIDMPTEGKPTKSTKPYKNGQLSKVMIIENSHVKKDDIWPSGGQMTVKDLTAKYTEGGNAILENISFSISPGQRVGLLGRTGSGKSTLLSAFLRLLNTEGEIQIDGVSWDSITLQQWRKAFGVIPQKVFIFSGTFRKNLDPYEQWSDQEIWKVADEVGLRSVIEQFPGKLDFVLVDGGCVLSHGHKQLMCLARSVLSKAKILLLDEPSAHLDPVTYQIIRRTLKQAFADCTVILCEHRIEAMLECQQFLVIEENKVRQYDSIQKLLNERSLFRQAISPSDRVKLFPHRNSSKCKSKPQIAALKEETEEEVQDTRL

| Emax [%] | SMILES |
| --- | --- |
| 120 to 132 | CC(C)(C)c1cc2cc(NC(=O)C3(c4ccc5c(c4)OCO5)CC3)c(F)cc2n1C[C@@H](O)CO |
| 122 | CC(C)(C)c1cc2cc(NC(=O)C3(c4ccc5c(c4)OC(F)(F)O5)CC3)c(F)cc2n1CC[N+](C)(C)C |
